Laboratory results: ChEMBL document CHEMBL4414592, “Aryl-fluorosulfate-based Lysine Covalent Pan-Inhibitors of Apoptosis Protein (IAP) Antagonists with Cellular Efficacy” (J Med Chem, 2019)
Activity calls are given as the source filed them. No cut-off for these calls is given here.

Legend:
[1] = Stability in aqueous buffer at 100 uM to 2 mM by 1H 1D NMR spectroscopy; assay type: physicochemical
[2] = Solubility in pH 7.5 aqueous buffer at 25 degC by 1H 1D NMR spectroscopy; assay type: physicochemical
SK-MEL-28 [3] = assay: Induction of apoptosis in human SK-MEL-28 cells assessed as increase in caspase-3/7 activity at […] incubated for 36 hrs by IncuCyteS3 caspase-3/7 fluorescence-based apoptosis assay; assay type: functional, cell-based
A549 [4] = assay: Induction of apoptosis in human A549 cells assessed as increase in caspase-3/7 activity at […] incubated for 36 hrs by IncuCyteS3 caspase-3/7 fluorescence-based apoptosis assay; assay type: functional, cell-based
SK-MEL-28 [5] = assay: Induction of apoptosis in human SK-MEL-28 cells assessed as increase in caspase-3/7 activity at […] incubated for 36 hrs in presence of 1 ng/mL TNFlpha by IncuCyteS3 caspase-3/7 fluorescence-based apoptosis assay; assay type: functional, cell-based
A549 [6] = assay: Induction of apoptosis in human A549 cells assessed as increase in caspase-3/7 activity at […] incubated for 36 hrs in presence of 1 ng/mL TNFlpha by IncuCyteS3 caspase-3/7 fluorescence-based apoptosis assay; assay type: functional, cell-based
SK-MEL-28 [7] = assay: Cytotoxicity in human SK-MEL-28 cells assessed as reduction in cell viability in presence of 1 ng/mL TNFlpha measured every 3 hrs for 4 days by IncuCyteS3 live-cell analysis system based assay; assay type: functional
A549 [8] = assay: Cytotoxicity in human A549 cells assessed as reduction in cell viability in presence of 1 ng/mL TNFlpha measured every 3 hrs for 4 days by IncuCyteS3 live-cell analysis system based assay; assay type: functional
[9] = target: Baculoviral IAP repeat-containing protein 2 (Homo sapiens) (UniProt Q13490); assay: Binding affinity to N-terminal 6x-His-tagged recombinant human cIAP1-BIR3 (258 to 363 residues) expressed in Escherichia coli assessed as increase in […] domain mass at protein-compound ratio of 1:10 incubated for 6 hrs at 25 degC by LC-MS analysis relative to control
[10] = Stability in mouse plasma assessed as half life at 200 uM at 37 degC incubated up to 120 mins by mass spectrometry; assay type: ADME, cell-free; settings: 2 h
[11] = target: T1, Baculoviral IAP repeat-containing protein 3 (Homo sapiens, UniProt Q13489); assay: Inhibition of N-terminal 6x-His-tagged recombinant human cIAP2-BIR3 (244 to 349 residues) expressed in Escherichia coli incubated for 2 hrs without 6 hrs pre-incubation with enzyme by biotinylated AVPI peptide based DELFIA
[12] = target: T1, Baculoviral IAP repeat-containing protein 3; assay: Inhibition of N-terminal 6x-His-tagged recombinant human cIAP2-BIR3 (244 to 349 residues) expressed in Escherichia coli incubated for 2 hrs after 6 hrs pre-incubation with enzyme by biotinylated AVPI peptide based DELFIA
[13] = target: T2, E3 ubiquitin-protein ligase XIAP (Homo sapiens, UniProt P98170)
[14] = target: T2, E3 ubiquitin-protein ligase XIAP; remark: listed apart in the source
[15] = target: T2, E3 ubiquitin-protein ligase XIAP; remark: listed apart in the source
[16] = target: T2, E3 ubiquitin-protein ligase XIAP; remark: listed apart in the source

T2 sequence (P98170 whole entry): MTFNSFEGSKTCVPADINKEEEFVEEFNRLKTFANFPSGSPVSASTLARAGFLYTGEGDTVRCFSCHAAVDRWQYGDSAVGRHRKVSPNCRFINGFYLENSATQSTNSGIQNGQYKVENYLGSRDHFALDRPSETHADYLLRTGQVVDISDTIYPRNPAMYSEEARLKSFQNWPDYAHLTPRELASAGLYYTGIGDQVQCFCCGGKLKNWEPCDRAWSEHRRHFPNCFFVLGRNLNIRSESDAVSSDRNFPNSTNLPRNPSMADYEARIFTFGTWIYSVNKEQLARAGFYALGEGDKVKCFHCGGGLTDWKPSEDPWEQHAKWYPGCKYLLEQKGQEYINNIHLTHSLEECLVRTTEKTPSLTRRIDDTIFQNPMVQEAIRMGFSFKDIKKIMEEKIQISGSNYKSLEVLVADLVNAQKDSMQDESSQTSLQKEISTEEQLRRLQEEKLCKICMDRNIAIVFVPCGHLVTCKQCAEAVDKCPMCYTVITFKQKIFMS
T1 sequence (Q13489 whole entry, the tested form may be a part): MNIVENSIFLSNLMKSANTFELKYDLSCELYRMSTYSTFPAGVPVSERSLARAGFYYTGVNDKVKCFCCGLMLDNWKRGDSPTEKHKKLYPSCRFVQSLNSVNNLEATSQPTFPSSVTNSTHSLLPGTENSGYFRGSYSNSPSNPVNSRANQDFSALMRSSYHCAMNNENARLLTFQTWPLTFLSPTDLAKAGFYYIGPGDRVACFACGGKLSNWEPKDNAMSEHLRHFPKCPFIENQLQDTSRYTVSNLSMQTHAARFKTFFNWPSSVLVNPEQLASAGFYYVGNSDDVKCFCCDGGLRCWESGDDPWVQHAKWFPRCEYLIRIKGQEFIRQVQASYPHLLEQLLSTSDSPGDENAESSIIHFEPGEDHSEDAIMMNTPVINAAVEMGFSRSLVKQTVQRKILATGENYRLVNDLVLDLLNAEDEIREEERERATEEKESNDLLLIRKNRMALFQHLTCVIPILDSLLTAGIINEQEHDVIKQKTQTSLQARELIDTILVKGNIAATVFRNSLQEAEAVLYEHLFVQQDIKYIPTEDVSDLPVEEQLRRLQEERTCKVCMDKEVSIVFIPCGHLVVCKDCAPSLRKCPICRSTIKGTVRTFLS
Sequence of Baculoviral IAP repeat-containing protein 2 (Homo sapiens) (Q13490 whole entry, the tested form may be a part): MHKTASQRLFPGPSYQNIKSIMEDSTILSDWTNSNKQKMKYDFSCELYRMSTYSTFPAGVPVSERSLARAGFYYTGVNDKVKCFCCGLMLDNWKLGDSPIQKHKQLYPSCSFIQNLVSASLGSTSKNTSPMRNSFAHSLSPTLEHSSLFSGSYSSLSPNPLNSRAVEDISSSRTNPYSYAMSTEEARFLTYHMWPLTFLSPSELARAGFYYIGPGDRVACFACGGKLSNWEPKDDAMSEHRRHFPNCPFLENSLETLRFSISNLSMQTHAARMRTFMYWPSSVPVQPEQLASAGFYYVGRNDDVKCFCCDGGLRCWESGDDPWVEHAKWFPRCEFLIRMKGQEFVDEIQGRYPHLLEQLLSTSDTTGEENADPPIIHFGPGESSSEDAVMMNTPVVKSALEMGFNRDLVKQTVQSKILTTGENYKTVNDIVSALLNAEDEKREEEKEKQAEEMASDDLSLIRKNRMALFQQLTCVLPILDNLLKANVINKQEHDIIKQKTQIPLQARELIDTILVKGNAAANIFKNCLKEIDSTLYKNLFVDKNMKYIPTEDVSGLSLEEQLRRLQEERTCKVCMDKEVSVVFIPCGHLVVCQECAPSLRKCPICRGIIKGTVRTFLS

Stability [10]	IC50 [11]	IC50 [12]	IC50 [13]	IC50 [14]	ΔTm [15]	ΔTm [16]	SMILES	Stability [1]	solubility [2]	Activity (SK-MEL-28 [3])	Activity (A549 [4])	Activity (SK-MEL-28 [5])	Activity (A549 [6])	Activity (SK-MEL-28 [7])	Activity (A549 [8])	Activity [9]
–	–	–	–	–	–	–	CN[C@@H](C)C(=O)N[C@H](C(=O)N1CCC[C@H]1C(=O)N[C@@H]1CCc2c(OS(=O)(=O)F)cccc21)C1CCCCC1	Stable	<= 2 mM	inactive	inactive	Dose-dependent effect	Dose-dependent effect	Dose-dependent effect	Dose-dependent effect	–
–	–	–	–	–	–	–	CN[C@@H](C)C(=O)N[C@@H](Cc1ccc(OS(=O)(=O)F)cc1)C(=O)N1CCC[C@H]1C(=O)N[C@@H]1CCc2c(F)cccc21	–	–	inactive	inactive	Dose-dependent effect	Dose-dependent effect	Dose-dependent effect	Dose-dependent effect	inactive
Stable	–	–	–	–	–	–	CN[C@@H](C)C(=O)N[C@H](C(=O)N1CCC[C@H]1c1nc(C(=O)c2ccc(F)cc2)cs1)C1CCCCC1 [LCL-161]	–	–	inactive	inactive	Dose-dependent effect	Dose-dependent effect	Dose-dependent effect	Dose-dependent effect	–
Stable	44 nM	133 nM	42 nM	47.8 nM	17 °C	19 °C	CN[C@@H](C)C(=O)N[C@H]1CN(C(=O)CC(C)C)CC[C@H]2CC[C@@H](C(=O)NC(c3ccccc3)c3ccccc3)N2C1=O [XEVINAPANT]	–	–	inactive	inactive	Dose-dependent effect	Dose-dependent effect	Dose-dependent effect	Dose-dependent effect	–

SMILES	Stability [10]	IC50 [11]	IC50 [12]	IC50 [13]	IC50 [14]	ΔTm [15]	ΔTm [16]	Stability [1]	solubility [2]	Activity (SK-MEL-28 [3])	Activity (A549 [4])	Activity (SK-MEL-28 [5])	Activity (A549 [6])	Activity (SK-MEL-28 [7])	Activity (A549 [8])	Activity [9]
CN[C@@H](C)C(=O)NC(Cc1cc(C)c(C(F)(F)F)cc1F)C(=O)N1CCC[C@H]1C(=O)N[C@@H]1CCc2c(OS(=O)(=O)F)cccc21 (mixture of isomers)	Stable	–	–	–	–	–	–	–	<= 1 mM	inactive	inactive	Dose-dependent effect	Dose-dependent effect	Dose-dependent effect	Dose-dependent effect	–
